Tests used:
[1] = Antagonist activity at human alpha6-alpha3/beta2/beta3 V273S mutant nAChR expressed in HEK293 cells assessed as nicotine-induced intracellular calcium release incubated for 15 mins by FLIPR analysis; format: cell-based; details: HEK293, 0.25 h
[2] = molecular target: Neuronal acetylcholine receptor; alpha3/beta4 (Homo sapiens, UniProt P30926+P32297); test: Antagonist activity at human alpha3/beta4 nAChR expressed in HEK293 cells assessed as nicotine-induced intracellular calcium release incubated for 15 mins by FLIPR analysis; format: cell-based
[3] = molecular target: Neuronal acetylcholine receptor; alpha4/beta2 (Homo sapiens, UniProt P17787+P43681); test: Antagonist activity at human alpha4/beta2 nAChR expressed in HEK293 cells assessed as nicotine-induced intracellular calcium release incubated for 15 mins by FLIPR analysis; format: cell-based
[4] = Metabolic stability in human liver microsome assessed as clearance preincubated for 60 mins followed by NADPH addition and measured after 60 mins by LC-MS/MS analysis; format: ADME; details: liver microsomes, time 120 min, read-out: CLH
[5] = Metabolic stability in rat liver microsome assessed as clearance preincubated for 60 mins followed by NADPH addition and measured after 60 mins by LC-MS/MS analysis; format: ADME; details: liver microsomes, time 120 min, read-out: CLH
[6] = Intrinsic clearance in Sprague-Dawley rat at 0.5 mg/kg, iv by LC-MS/MS analysis; format: ADME, organism-based; details: in vivo
[7] = Volume of distribution at steady state in Sprague-Dawley rat at 0.5 mg/kg, iv by LC-MS/MS analysis; format: ADME, organism-based; details: in vivo, read-out: Vdss
[8] = Oral bioavailability in Sprague-Dawley rat 3 mg/kg by LC-MS/MS analysis; format: ADME, organism-based; details: in vivo
[9] = Drug exposure in Sprague-Dawley rat brain at 3 mg/kg, po measured for 2 hrs by LC-MS/MS analysis; format: ADME, organism-based; details: read-out: Drug uptake
[10] = Metabolic stability in human liver microsome assessed as clearance at 10 uM incubated upto 2 hrs by LC-MS/MS analysis; format: ADME; details: liver microsomes, read-out: CLH
[11] = Metabolic stability in rat liver microsome assessed as clearance at 10 uM incubated upto 2 hrs by LC-MS/MS analysis; format: ADME; details: liver microsomes, read-out: CLH

Sequence of Neuronal acetylcholine receptor; alpha4/beta2 (P17787 whole entry): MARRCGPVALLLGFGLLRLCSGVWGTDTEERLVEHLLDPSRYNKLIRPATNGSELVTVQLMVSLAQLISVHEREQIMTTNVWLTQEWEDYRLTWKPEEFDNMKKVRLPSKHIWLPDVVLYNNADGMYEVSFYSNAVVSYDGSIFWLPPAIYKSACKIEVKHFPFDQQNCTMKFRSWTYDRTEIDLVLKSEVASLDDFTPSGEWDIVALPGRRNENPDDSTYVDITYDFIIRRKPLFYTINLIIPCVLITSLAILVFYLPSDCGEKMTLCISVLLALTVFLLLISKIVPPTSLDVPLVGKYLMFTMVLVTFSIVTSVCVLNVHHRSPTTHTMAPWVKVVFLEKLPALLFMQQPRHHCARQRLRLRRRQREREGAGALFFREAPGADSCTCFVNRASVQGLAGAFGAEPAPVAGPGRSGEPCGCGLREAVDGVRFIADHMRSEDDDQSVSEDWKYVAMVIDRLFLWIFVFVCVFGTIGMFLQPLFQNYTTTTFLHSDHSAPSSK
Sequence of Neuronal acetylcholine receptor; alpha4/beta2 (P43681 whole entry): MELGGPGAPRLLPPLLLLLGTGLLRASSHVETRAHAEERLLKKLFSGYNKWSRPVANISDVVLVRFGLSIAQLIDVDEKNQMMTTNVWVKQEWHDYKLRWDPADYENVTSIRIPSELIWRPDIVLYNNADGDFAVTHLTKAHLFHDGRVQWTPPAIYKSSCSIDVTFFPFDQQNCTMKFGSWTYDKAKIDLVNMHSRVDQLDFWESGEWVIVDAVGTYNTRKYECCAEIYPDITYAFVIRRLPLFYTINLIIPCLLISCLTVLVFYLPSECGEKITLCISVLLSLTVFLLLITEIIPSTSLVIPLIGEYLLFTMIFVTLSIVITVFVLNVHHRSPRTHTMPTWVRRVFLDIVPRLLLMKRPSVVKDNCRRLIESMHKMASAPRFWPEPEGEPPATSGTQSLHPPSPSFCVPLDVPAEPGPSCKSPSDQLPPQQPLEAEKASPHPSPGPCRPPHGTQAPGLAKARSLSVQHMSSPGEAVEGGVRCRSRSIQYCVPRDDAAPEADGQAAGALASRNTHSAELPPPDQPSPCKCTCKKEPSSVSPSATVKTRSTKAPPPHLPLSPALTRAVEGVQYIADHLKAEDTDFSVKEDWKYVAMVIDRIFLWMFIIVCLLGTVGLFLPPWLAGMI
Sequence of Neuronal acetylcholine receptor; alpha3/beta4 (P30926 whole entry): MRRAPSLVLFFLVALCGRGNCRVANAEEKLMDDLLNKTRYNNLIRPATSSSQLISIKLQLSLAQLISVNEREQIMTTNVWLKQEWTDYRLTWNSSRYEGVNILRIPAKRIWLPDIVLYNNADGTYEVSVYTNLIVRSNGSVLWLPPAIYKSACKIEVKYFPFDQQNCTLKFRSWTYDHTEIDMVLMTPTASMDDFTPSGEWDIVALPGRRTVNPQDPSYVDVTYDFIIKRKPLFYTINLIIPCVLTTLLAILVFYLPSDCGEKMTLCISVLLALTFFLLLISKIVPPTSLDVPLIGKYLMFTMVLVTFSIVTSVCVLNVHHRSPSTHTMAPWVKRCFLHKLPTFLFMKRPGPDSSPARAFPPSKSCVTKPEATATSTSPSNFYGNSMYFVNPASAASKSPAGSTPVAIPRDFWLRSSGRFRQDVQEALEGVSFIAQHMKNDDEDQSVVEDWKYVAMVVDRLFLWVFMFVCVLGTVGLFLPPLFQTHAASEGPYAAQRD
Sequence of Neuronal acetylcholine receptor; alpha3/beta4 (P32297 whole entry): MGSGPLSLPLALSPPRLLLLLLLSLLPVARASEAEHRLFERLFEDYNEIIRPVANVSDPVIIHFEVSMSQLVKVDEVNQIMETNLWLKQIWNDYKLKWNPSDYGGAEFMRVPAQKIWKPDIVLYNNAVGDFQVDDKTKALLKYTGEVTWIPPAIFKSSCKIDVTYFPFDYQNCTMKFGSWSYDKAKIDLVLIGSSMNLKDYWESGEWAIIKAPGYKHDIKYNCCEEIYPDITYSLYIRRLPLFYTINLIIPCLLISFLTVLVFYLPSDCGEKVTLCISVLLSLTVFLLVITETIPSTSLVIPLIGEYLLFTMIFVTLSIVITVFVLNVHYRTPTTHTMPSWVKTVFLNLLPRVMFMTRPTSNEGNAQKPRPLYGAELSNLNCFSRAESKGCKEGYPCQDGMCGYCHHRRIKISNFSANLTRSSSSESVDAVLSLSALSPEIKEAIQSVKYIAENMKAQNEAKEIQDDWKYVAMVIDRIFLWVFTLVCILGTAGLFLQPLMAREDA

Structure (SMILES)	IC50 [1] [µM]	IC50 [2] [µM]	IC50 [3] [µM]	microsomal CLint [4] [µL/min/mg]	microsomal CLint [5] [µL/min/mg]	CL [6] [L/h/kg]	Vd [7] [L/kg]	bioavailability [8] [%]	concentration at 2 h [9] [µM]	microsomal CLint at 10 µM [10] [µL/min/mg]	microsomal CLint at 10 µM [11] [µL/min/mg]
CN1CCC(NC(=O)c2cc(-c3ccc(C(F)(F)F)cc3)n(C)n2)C1 (racemic)	0.132	2.45	7.72	28.9	31.2	2.82	18.5	18.1	0.948		
CN1CCC[C@@H](NC(=O)c2cc(-c3ccc(C(F)(F)F)cc3)n(C)n2)C1	0.08	0.637	2.82	21.4	3.5	4.2	13.4	> 100	1.91		
COc1ccc(-c2cc(C(=O)N[C@@H]3CN(C)CCC3(F)F)nn2C)c(Cl)c1	0.094									61.3	< 6.4
CN1CCC[C@@H](NC(=O)c2cc(-c3ccc(C(F)(F)F)cc3Cl)n(C)n2)C1	0.076										
CN1[C@@H]2CCC[C@H]1C[C@H](NC(=O)c1cc(-c3ccc(C(F)(F)F)cc3)n(C)n1)C2	0.133	6.25	0.993	1.2	3.2	1.22	23.4	86.6	0.14		
CN1CCC[C@H](NC(=O)c2cc(-c3ccc(C(F)(F)F)cc3)n(C)n2)C1	0.093	0.422	3.73	9.6	2.5	2.43	13	17.3	1.09		

Further lines, results first:

IC50 [1] [µM]	IC50 [2] [µM]	IC50 [3] [µM]	microsomal CLint [4] [µL/min/mg]	microsomal CLint [5] [µL/min/mg]	CL [6] [L/h/kg]	Vd [7] [L/kg]	bioavailability [8] [%]	concentration at 2 h [9] [µM]	microsomal CLint at 10 µM [10] [µL/min/mg]	microsomal CLint at 10 µM [11] [µL/min/mg]	Structure (SMILES)
0.194	> 10	2.62									COc1ccc(-c2cc(C(=O)N[C@H]3CCCN(C)C3)nn2C)cc1
0.23	> 10	3.5									COc1ccc(-c2cc(C(=O)N[C@@H]3CCCN(C)C3)nn2C)cc1
0.06	0.45	3.18	3.1	3.1	3.89	29.8	82	0.524			Cn1nc(C(=O)NCCN2CCCCC2)cc1-c1ccc(C(F)(F)F)cc1
0.183	1.41	0.281			4.91	18.7	27.8	0.03			CN(C)C1(CNC(=O)c2cc(-c3ccc(C(F)(F)F)cc3)n(C)n2)CCCC1

Reference: ChEMBL document CHEMBL5365451, “Discovery of CVN417, a Novel Brain-Penetrant α6-Containing Nicotinic Receptor Antagonist for the Modulation of Motor Dysfunction” (J Med Chem, 2023)
